Results: ChEMBL document CHEMBL3507680, “University of Dundee, Gates Library screen for HepG2 cell viability”

Assay: Human HepG2 cell viability assay in 384 well format
Type: toxicity, cell-based
Design: dose 125 nL, time 70.5 hour; concentration not given beside the values
Conditions: HepG2 cells, read-out: Inhibition
In the case of `CCc1nccn1C1CCCN(C(=O)c2ccn(C)c(=O)c2)C1` (stereo not given), the cytotoxicity at 70.5 h is reported as -0.0555%. `CCSc1ccccc1C(=O)N1CCC(S(=O)(=O)c2nncn2C)CC1` gave a cytotoxicity at 70.5 h of -5.86%. Work on `Cc1ccsc1[C@@H]1CCN(C(=O)c2ccc(-c3cc[nH]n3)cc2)C[C@H]1O` yielded a cytotoxicity at 70.5 h of -10.8%. With `COc1cccn(C(C)C(=O)NC2CCCC2)c1=O` (stereo not given) the cytotoxicity at 70.5 h was -1.93%. Molecule `Cc1cc(NC(=O)CNC2CCc3ncnn3C2)on1` (stereo not given) has a cytotoxicity at 70.5 h of 9.31%. `Cc1ccc(S(=O)(=O)N2C[C@H]3C[C@H](NC(=O)C(C)C)[C@H]3C2)cc1` gave a cytotoxicity at 70.5 h of 20.3%. With `O=C1NCCN(C(=O)CN2CCOC2=O)C1c1cccc(F)c1` (stereo not given) the cytotoxicity at 70.5 h was -18.2%. `Cc1ccnn1CCC(=O)N1CCCC[C@]2(C)NC(=O)CCC[C@H]12` showed a cytotoxicity at 70.5 h of -7.45%. For `Cn1cnnc1C1CCCN(C(=O)c2cc(-c3ccccc3)on2)C1` (stereo not given), the cytotoxicity at 70.5 h was -9.15%. `CC(=O)N1CCc2nc(-c3ccc(F)cc3)nc(NC(C)C)c2CC1` gave a cytotoxicity at 70.5 h of 7.5%. `Cc1ccc(C(=O)N2CCC3(CCC(C(=O)NCC4CC4)O3)CC2)o1` (stereo not given) showed a cytotoxicity at 70.5 h of -12.5%. `Cc1cc(NC(=O)NCC2COc3ccccc3C2)no1` (stereo not given) showed a cytotoxicity at 70.5 h of 52%. In the case of `O=C(C1CCCO1)N1CCC(n2cc(-c3ccc(F)cc3)nn2)CC1` (stereo not given), the cytotoxicity at 70.5 h is reported as 0.724%. `OCc1ccc(-c2nccn2CCC2=CCCCC2)o1` gave a cytotoxicity at 70.5 h of -9.58%. Work on `O=C(NCC(O)CN1CCc2ccccc2C1)Nc1cccnc1` (stereo not given) yielded a cytotoxicity at 70.5 h of -17.4%. For `O=C(CN1CCOCC1)N1CCC(c2cc(N3CCCC3)ncn2)CC1`, the cytotoxicity at 70.5 h was -3.77%. Molecule `CC(=O)N1CCN(C(=O)c2c(Cl)c3ccccc3n2C)CC1` has a cytotoxicity at 70.5 h of -7.65%. Molecule `Cc1c(-c2c(-c3ccccc3)ncn2[C@H](CO)C(=O)O)cnn1C` has a cytotoxicity at 70.5 h of -7.01%. `CCOCCC1(CNC(=O)c2ccncc2Cl)CCC1` gave a cytotoxicity at 70.5 h of -2.65%. In the case of `CC(C)(NCCOc1ccc(CC#N)cc1)c1nccs1`, the cytotoxicity at 70.5 h is reported as -2.87%. For `CSCC(=O)NCc1cc(Br)ccc1OC(F)F`, the cytotoxicity at 70.5 h was -5.17%. `Cc1cc(-c2nn(C)c(Cl)c2CN2CCC3(CC2)[C@H](O)C[C@@H]3O)no1` showed a cytotoxicity at 70.5 h of -4.3%. Work on `Cc1ccc(CCNc2ncc(C)c(-c3ccnn3C)n2)s1` yielded a cytotoxicity at 70.5 h of -8.02%. `Cn1cc(C2CC(=O)NC23CCN(CC2CC2)CC3)cn1` (stereo not given) gave a cytotoxicity at 70.5 h of 9.8%. In the case of `CCN(Cc1ccccc1)C(=O)c1cc(C2CCCN2C)ccn1` (stereo not given), the cytotoxicity at 70.5 h is reported as 10.8%. Work on `CN1CC2(CCCN(c3nc(N)nc4c3CCCC4)C2)OC1=O` (stereo not given) yielded a cytotoxicity at 70.5 h of -10.1%. `Cc1cc(C)n(CC2CN(Cc3cscn3)CCO2)n1` (stereo not given) showed a cytotoxicity at 70.5 h of -4.76%. For `COc1cc(C)sc1C(=O)N1CC(c2cccnc2)C1`, the cytotoxicity at 70.5 h was -3.92%. In the case of `CCCc1cc(C(=O)NCCN2C(=O)c3ccccc3C2=O)[nH]n1`, the cytotoxicity at 70.5 h is reported as -8.43%. For `Cc1occc1C(=O)N1CCC2(CCN(Cc3nccs3)C2)CC1`, the cytotoxicity at 70.5 h was -11%. For `Cc1ccc(CN2CCCC23Cc2ccccc2CNC3=O)cc1` (stereo not given), the cytotoxicity at 70.5 h was 21.9%. `CC(C)c1nc(CC(=O)Nc2cnccc2O)cs1` gave a cytotoxicity at 70.5 h of -3.73%. With `O=C(c1ccnnc1)N1CCN2C[C@H](Oc3cccc(F)c3)C[C@H]2C1` the cytotoxicity at 70.5 h was -5.78%. `Cc1ccc(CNCc2nnc3n2CC(C(F)(F)F)CC3)cc1` (stereo not given) showed a cytotoxicity at 70.5 h of 1.57%. For `O=C(Nc1cccc(F)c1)NC1CCN(Cc2ccncc2)CC1`, the cytotoxicity at 70.5 h was -15.3%. With `CC(C)(C)c1n[nH]c(C2CN(C(=O)CCc3ccco3)CCO2)n1` (stereo not given) the cytotoxicity at 70.5 h was 1.28%. For `CCn1c(N)nc2cc(C(=O)N(C)Cc3cc(C(C)(C)C)n[nH]3)cnc21`, the cytotoxicity at 70.5 h was -5.41%. In the case of `O=C1NC2(CCN(Cc3cccs3)CC2)CC1c1ccncc1` (stereo not given), the cytotoxicity at 70.5 h is reported as 10.2%. In the case of `Cc1cc(NC(=O)NCCc2ccsc2)n(C)n1`, the cytotoxicity at 70.5 h is reported as -3.08%. Work on `Cc1cccc2cc(CN3CCC(N4CCCC4)CC3)c(=O)[nH]c12` yielded a cytotoxicity at 70.5 h of -6.75%. In the case of `CC(=O)N1CCN(C(=O)CCc2cc(Br)cs2)CC1`, the cytotoxicity at 70.5 h is reported as -3.42%. `CC[C@@H]1N(Cc2ccccn2)CCC[C@]12CCC(=O)N2CCOC` showed a cytotoxicity at 70.5 h of -5.82%. With `N#Cc1ccc(F)c(CNC(=O)NCCC(=O)NC2CCCC2)c1` the cytotoxicity at 70.5 h was -3.12%. `Fc1ccc(-c2nc(CN3CCCC3Cn3cncn3)co2)cc1` (stereo not given) gave a cytotoxicity at 70.5 h of 17.6%. With `O=C(O)c1cc(S(=O)(=O)Nc2ccc(F)cc2Cl)cc2c1OCCO2` the cytotoxicity at 70.5 h was 0.949%. In the case of `COCC(NC(=O)NCc1ccc(C)c(F)c1)c1ccco1` (stereo not given), the cytotoxicity at 70.5 h is reported as 1.44%. `CN(C(=O)CCN1CCCC1=O)c1cc(C#N)c2ccccc2n1` gave a cytotoxicity at 70.5 h of 4.42%. Work on `CC(CNC(=O)N1CCN(Cc2ccon2)CC1)Cc1cccs1` (stereo not given) yielded a cytotoxicity at 70.5 h of -2.44%. With `CCN1CC[C@]2(CN(C(=O)[C@H]3CCCO3)C[C@H]2c2ccccc2)C1=O` the cytotoxicity at 70.5 h was -1.85%. `CNC(=O)Cn1ccc2ccc(NC(=O)C(C)CSC)cc21` (stereo not given) gave a cytotoxicity at 70.5 h of -5.03%. For `CCOc1ccc(-c2nc(CN(C)Cc3c(C)noc3C)cs2)cc1`, the cytotoxicity at 70.5 h was 11.3%. For `O=C(c1ccc[nH]1)N(Cc1ccc(O)cc1)CC1CC1`, the cytotoxicity at 70.5 h was 20.8%. With `CC(=O)N1CCCC(c2ccc(N3CCOCC3)cn2)C1` (stereo not given) the cytotoxicity at 70.5 h was -5.65%. Work on `Cn1cc(Cl)cc1C(=O)N1CCN(CCc2cccs2)CC1` yielded a cytotoxicity at 70.5 h of -4.15%. For `CNC(=O)CN1CCOCC12CCN(CCc1ccccc1)CC2`, the cytotoxicity at 70.5 h was -13.5%. Molecule `CN1CCN(Cc2cn3c(n2)CN(Cc2ccc(F)cc2)CC3)CC1` has a cytotoxicity at 70.5 h of -9.1%. For `CS(=O)(=O)Cc1ccc(C(=O)Nc2ccc3c(c2)C(=O)NC3)cc1`, the cytotoxicity at 70.5 h was -6.71%. In the case of `COc1ccc2c(c1)OCC(CNC(=O)c1cc[nH]c1C)C2` (stereo not given), the cytotoxicity at 70.5 h is reported as -19.4%. Work on `O=C(C1CCOC1)N1C[C@H]2CN(c3ccccc3)C(=O)[C@H]2C1` (stereo not given in full) yielded a cytotoxicity at 70.5 h of -4.87%. `O=C(NCCCNc1ccccc1)c1scnc1Cl` showed a cytotoxicity at 70.5 h of 4.41%. Work on `Cc1cccc(Cc2cc(C)nc(C3CCCNC3)c2)c1` (stereo not given) yielded a cytotoxicity at 70.5 h of 2.77%. `CCc1cccc(N2CCC(NC(=O)c3ccc(=O)[nH]n3)CC2)c1` gave a cytotoxicity at 70.5 h of -0.843%. For `CC(=O)N1CCc2c(nc(N(C)C)nc2NC(C)Cc2cccs2)C1` (stereo not given), the cytotoxicity at 70.5 h was -6.58%. `CNc1cc2c(nn1)CCN(C(=O)c1coc(Br)c1)C2` gave a cytotoxicity at 70.5 h of 17.6%. Work on `Cc1ccnn1CCNC(=O)C1CCN(S(=O)(=O)c2ccc(F)cc2)C1` (stereo not given) yielded a cytotoxicity at 70.5 h of 6.47%. `CC(C)CCC(=O)N1C[C@H]2CCN[C@H]2C1` showed a cytotoxicity at 70.5 h of -3.29%. `COCc1noc(CN2C[C@H](C3CC3)[C@@H](N(C)C)C2)n1` gave a cytotoxicity at 70.5 h of -8.41%. `O=C(NCC1CC1)[C@H]1C[C@@H]2CN(S(=O)(=O)Cc3ccccc3)C[C@H]1O2` gave a cytotoxicity at 70.5 h of 18.9%. Work on `Cn1cc(NC(=O)N2CCC(CN3CCCC3)CC2)ccc1=O` yielded a cytotoxicity at 70.5 h of -0.384%. `Cc1ccc(C(=O)N2CCC3(CCCN(c4ncc(F)cn4)C3)C2)cn1` (stereo not given) gave a cytotoxicity at 70.5 h of -5.14%. `CCC1=N[C@@]2(CC[C@@H]3CN(C(=O)NCc4ccccc4)C[C@@H]32)C(=O)N1C` gave a cytotoxicity at 70.5 h of 26.3%. `CCCn1ncc(-c2nc3c(cnn3CC)[nH]2)c1C` gave a cytotoxicity at 70.5 h of -7.07%. With `COCC1CCN(S(=O)(=O)N2C[C@@H](C)[C@@](C)(O)C2)CC1` the cytotoxicity at 70.5 h was -0.99%. Work on `Cc1ccc(CCNc2ncnc3sc4c(c23)CCNC4)o1` yielded a cytotoxicity at 70.5 h of -8.67%. Work on `NC(=O)Cn1ccc(NC(=O)C2(c3cccc(F)c3)CCC2)n1` yielded a cytotoxicity at 70.5 h of 19.5%. In the case of `CS(=O)(=O)Cc1cccc(C(=O)NCC2Cc3ccccc3O2)c1` (stereo not given), the cytotoxicity at 70.5 h is reported as -3.94%. For `CC(CNC(=O)c1cccnc1)Oc1ccc(F)cc1` (stereo not given), the cytotoxicity at 70.5 h was 8.38%. Work on `Cn1nc(C(=O)NCc2cccs2)c2c1CCS(=O)(=O)C2` yielded a cytotoxicity at 70.5 h of -6.12%. For `CCc1c(C)sc(NC(=O)CN2CCOCC2)c1C(=O)OC`, the cytotoxicity at 70.5 h was -6.67%. For `O=S(=O)(c1cccnc1)N1CCCC1COc1ccccc1` (stereo not given), the cytotoxicity at 70.5 h was -4.52%.
